Reference: US11484529B2, “Desmethylanethole trithione derivatives for the treatment of diseases linked to mitochondrial reactive oxygen species (ROS) production” (OP2 Drugs, priority 2017, dated 2022)

How the values were obtained:
[1] = target: T1, site IIIQO (Rattus norvegicus, UniProt P00159+P20788); test: Mitochondrial ROS/H2O2 production (Amplex Red/HRP) after rotenone, antimycin A, myxothiazol; type: biochemical; settings: AOL 5 to 80 μM
T1 construct: from tissue; host or cells: mitochondria isolated from rat heart
T1 sequence (P00159 whole entry): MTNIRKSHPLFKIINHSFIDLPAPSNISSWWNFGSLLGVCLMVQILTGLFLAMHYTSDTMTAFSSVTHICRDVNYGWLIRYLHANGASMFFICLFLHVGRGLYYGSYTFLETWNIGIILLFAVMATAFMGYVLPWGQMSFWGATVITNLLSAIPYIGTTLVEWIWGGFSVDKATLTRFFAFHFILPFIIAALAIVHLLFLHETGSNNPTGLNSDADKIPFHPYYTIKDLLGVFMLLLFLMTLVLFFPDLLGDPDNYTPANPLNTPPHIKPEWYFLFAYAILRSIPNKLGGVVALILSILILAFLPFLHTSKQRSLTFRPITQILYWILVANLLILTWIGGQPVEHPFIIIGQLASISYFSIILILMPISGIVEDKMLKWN
T1 sequence (P20788 79-274 limits assumed): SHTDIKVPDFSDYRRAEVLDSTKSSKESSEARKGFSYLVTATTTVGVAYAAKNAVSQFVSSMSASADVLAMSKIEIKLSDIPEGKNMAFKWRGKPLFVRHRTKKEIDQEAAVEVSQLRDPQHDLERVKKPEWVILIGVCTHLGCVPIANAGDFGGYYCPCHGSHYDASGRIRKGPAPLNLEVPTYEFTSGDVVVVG
T1 sequence (P20788 1-78 partner limits assumed): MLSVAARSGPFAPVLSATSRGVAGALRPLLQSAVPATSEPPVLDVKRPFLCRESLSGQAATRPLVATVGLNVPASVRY
T1 sequence (Q68FY0 35-480 partner): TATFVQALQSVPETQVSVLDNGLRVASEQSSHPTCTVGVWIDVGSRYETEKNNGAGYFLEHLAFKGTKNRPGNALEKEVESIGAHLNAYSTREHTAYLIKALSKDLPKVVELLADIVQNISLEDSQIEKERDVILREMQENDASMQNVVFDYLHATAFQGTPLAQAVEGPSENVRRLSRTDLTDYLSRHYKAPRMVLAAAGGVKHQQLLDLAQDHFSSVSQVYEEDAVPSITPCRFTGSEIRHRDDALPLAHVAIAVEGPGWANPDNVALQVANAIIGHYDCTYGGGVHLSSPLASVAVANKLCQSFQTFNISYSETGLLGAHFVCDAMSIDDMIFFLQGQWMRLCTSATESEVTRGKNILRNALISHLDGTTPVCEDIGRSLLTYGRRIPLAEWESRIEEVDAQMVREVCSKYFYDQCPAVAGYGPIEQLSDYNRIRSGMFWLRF
T1 sequence (P32551 15-452 partner): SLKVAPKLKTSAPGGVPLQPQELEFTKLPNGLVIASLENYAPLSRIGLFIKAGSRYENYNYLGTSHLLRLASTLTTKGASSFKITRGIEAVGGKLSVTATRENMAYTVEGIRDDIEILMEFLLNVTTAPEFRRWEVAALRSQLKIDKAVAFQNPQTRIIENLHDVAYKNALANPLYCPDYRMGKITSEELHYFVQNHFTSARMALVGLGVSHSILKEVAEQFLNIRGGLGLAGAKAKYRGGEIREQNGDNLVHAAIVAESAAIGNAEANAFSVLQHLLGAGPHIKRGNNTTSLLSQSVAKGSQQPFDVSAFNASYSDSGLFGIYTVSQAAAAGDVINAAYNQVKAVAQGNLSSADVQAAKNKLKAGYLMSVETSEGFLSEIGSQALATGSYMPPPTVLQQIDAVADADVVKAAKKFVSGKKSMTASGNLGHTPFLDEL
Method: Rates of ROS/H2O2 production from heart mitochondria were assessed through the oxidation of the colorless, non-fluorescent indicator Amplex Red in the presence of exogenous horseradish peroxidase (HRP, EC 1.11.1.7, Sigma). H2O2 reacts with Amplex Red in a 1:1 stoichiometry, yielding the fluorescent compound resorufin (excitation: 560 nm; emission: 585 nm) which is stable once formed. Fluorescence was measured continuously with a spectro-fluorometer equipped with temperature control and stirring (SAFAS Xenius, Monaco). Isolated mitochondria (0.1 mg/mL) were incubated in the same experimental buffer than previously, supplemented with 15 μM Amplex Red and 10 μg/mL HRP. Glutamate (5 mM)/malate (2.5 mM) together with succinate (5 mM) were used as complex I and complex II substrates, respectively. Experiments were conducted under non-phosphorylating conditions in the presence of 15 μM atractyloside, i.e., under state IV conditions where mitochondrial membrane is maximal. […]
Rates of ROS/H2O2 production from heart mitochondria were assessed through the oxidation of the colorless, non-fluorescent indicator Amplex Red in the presence of exogenous horseradish peroxidase (HRP, EC 1.11.1.7, Sigma). […] Fluorescence was measured continuously with a spectro-fluorometer equipped with temperature control and stirring (SAFAS Xenius, Monaco). […]

[2] = test system: isolated pancreatic islets from mice; test: Glucose-stimulated insulin secretion (GSIS) in isolated pancreatic islets; type: cell-based, mouse; settings: AOL 10 and 20 μM, 1 hour
Method: Pancreatic islets were isolated using the collagenase digestion method. Briefly, pancreas was inflated with Hanks solution containing 0.33 mg/mL of collagenase (Sigma-Aldrich), 5.6 mM glucose and 1% bovine serum albumin, pH 7.35, removed and kept at 37° C. for 6-9 minutes. After tissue digestion and exocrine removal by three consecutive washes, the islets were manually collected, under a binocular magnifier. Islets were left recovering from digestion by culturing for 20-24 hours in RPMI-1640 medium containing 11 mM glucose (Invitrogen, CA, USA) and supplemented with 2 mM glutamine, 200 IU/mL penicillin, 200 μg/mL streptomycin and 8% fetal bovine serum stripped with charcoal-dextran (Invitrogen).
For each static GSIS experiment, islets from two mice were first incubated for 2 hours at 37° C. in 3 mL Krebs-bicarbonate buffer solution (in mM): […] and 3 glucose, equilibrated with a mixture of 95% 02:5% C02, pH 7.4. […] Insulin secretion in each well was calculated as ng of insulin per islet and per hour of incubation, and then expressed as percentage of insulin secretion in 11 mM glucose vehicle group, which was considered 100%.

[3] = test system: H460 carcinoma cells; test: Transwell cell migration (metastatic activity); type: cell-based, human; settings: AOX 5 and 10 μM, 16 hours
Method: Cell migration assays were performed in Transwells (Corning Inc., 8.0-μm pore size). For migration assay, 2·10^4 cells in serum-free medium were added to the upper wells. Media containing 10% FBS were added to the lower wells. Cells that migrated through the filter after 16 hours were stained with 0.2% crystal violet and counted using the software Image J.
The Transwell test of cell migration has been utilized for this assay and the migration of H460 carcinoma cells has been measured in the presence of two different concentrations of AOX (5 and 10 μM) and compared to the effect of 100 μM N-acetyl cystein (NAC) as a positive control of cytosolic ROS production (FIG. 25).

Row | SMILES | effect on ROS/H2O2 production under the other conditions [1] | GSIS increase as compared to the 11 mM glucose vehicle group [2] | metastatic activity (cells crossing the membrane) [3]
1 | COc1ccc(-c2cc(=S)ss2)cc1 [AOL, 5-(4-methoxyphenyl)-3H-1,2-dithiole-3-thione] | no statistical differences were observed | 65-75% | 
2 | Oc1ccc(-c2cc(=S)ss2)cc1 [AOX, 5-(4-hydroxyphenyl)-3H-1,2-dithiole-3-thione] |  |  | absence of induction of metastatic activity
